Laboratory results from patent publication US20110040086A1, “Novel Beta-Lactam Antibiotics, Methods for Their Production, and Their Use” (DRITTE PATENTPORTFOLIO BETEILIGUNGSGESELLSCHAFT MB, priority 2007, published 2011).

Assays:
S. epidermidis 1071 = assay: agar diffusion test (Test System II, multi-resistant germs); format: cell-based, Staphylococcus epidermidis
Outline: (§1)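 Disc diffusion on Müller-Hinton II agar; inoculum McFarland 0.5 in saline, streaked in three directions. Discs carry 10/50/100 μg compound (MeOH or water). 37 °C, 18-20 h; read-out: zone-of-inhibition diameter.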

S. epidermidis 847 = assay: as above; format: cell-based, Staphylococcus epidermidis
Outline: as §1

S. epidermidis 563 = assay: as above; format: cell-based, Staphylococcus epidermidis
Outline: as §1

S. epidermidis 1068 = assay: as above; format: cell-based, Staphylococcus epidermidis
Outline: as §1

[1] = test system: Enterococcus faecalis 769; assay: as above; format: cell-based; set-up: key: r = resistant (no detectable zone of inhibition)
Outline: as §1

[2] = test system: Staphylococcus aureus 315; assay: as above; format: cell-based; set-up: key: r = resistant (no detectable zone of inhibition)
Outline: as §1

[3] = test system: Escherichia coli SBUG 1135; assay: agar diffusion test (Test System 1, antimicrobial effect); format: cell-based
Outline: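 Disc diffusion: compound at 10 μg, 50 μg, 100 μg on sensi-discs, three per plate of nutrient agar seeded with ~10^6 E. coli SBUG 1135 (overnight culture, 17 h, 37° C, diluted 1:100). After 20 h incubation at 37° C, zone diameter recorded in mm.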

E. faecalis 945 = assay: agar diffusion test (Test System II, multi-resistant germs); format: cell-based, Enterococcus faecalis; set-up: key: r = resistant (no detectable zone of inhibition)
Outline: as §1

S. epidermidis 125 = assay: as above; format: cell-based, Staphylococcus epidermidis
Outline: as §1

[4] = test system: Bacillus megaterium SBUG 1152; assay: agar diffusion test (Test System 1, antimicrobial effect); format: cell-based
Outline: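 Paper discs loaded with 10 μg, 50 μg or 100 μg of test substance (methanol or water solution) placed on nutrient agar seeded with 10^6 cells of a 17-h B. megaterium culture. After 20 h at 37° C., zone of inhibition measured as diameter in mm.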

S. aureus 36881 = assay: agar diffusion test (Test System II, multi-resistant germs); format: cell-based, Staphylococcus aureus; set-up: key: r = resistant (no detectable zone of inhibition)
Outline: as §1

[5] = test system: S. aureus North Germany strain; assay: as above; format: cell-based, Staphylococcus aureus; set-up: key: r = resistant (no detectable zone of inhibition)
Outline: as §1

S. aureus 34289 = assay: as above; format: cell-based, Staphylococcus aureus; set-up: key: r = resistant (no detectable zone of inhibition)
Outline: as §1

S. aureus 520 = assay: as above; format: cell-based, Staphylococcus aureus; set-up: key: r = resistant (no detectable zone of inhibition)
Outline: as §1

S. aureus 526 = assay: as above; format: cell-based, Staphylococcus aureus; set-up: key: r = resistant (no detectable zone of inhibition)
Outline: as §1

S. aureus 39105 = assay: as above; format: cell-based, Staphylococcus aureus; set-up: key: r = resistant (no detectable zone of inhibition)
Outline: as §1

S. aureus 33490 = assay: as above; format: cell-based, Staphylococcus aureus; set-up: key: r = resistant (no detectable zone of inhibition)
Outline: as §1

B. subtilis AWD 166 = assay: agar diffusion test (antimicrobial effect); format: cell-based, Bacillus subtilis
Outline: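 Inhibition zone diameters (mm) read after 20 h incubation at 37 °C. Discs carried 10 μg, 50 μg or 100 μg of test substance, dissolved in methanol or distilled water, on agar inoculated with B. subtilis AWD 166 for dense but separate colonies.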

## 3-chlorine-7-[2-(2-methoxycarbonyl-3,6-dioxocyclohexa-1,4-dienylamino)-2-phenyl-acetylamino]-8-oxo-1-thia-5-azabicyclo[4.2.0]oct-3-en-4-carboxylic acid [1k]
S. epidermidis 1071; Quantity n 0.029
  Diameter of zone of inhibition: 18 mm
S. epidermidis 1071; Quantity n 0.14
  Diameter of zone of inhibition: 24 mm
S. epidermidis 1071; Quantity n 0.29
  Diameter of zone of inhibition: 28 mm
S. epidermidis 847; Quantity n [mol] 0.029
  Diameter of zone of inhibition: 8 mm
S. epidermidis 847; Quantity n [mol] 0.14
  Diameter of zone of inhibition: 24 mm
S. epidermidis 847; Quantity n [mol] 0.29
  Diameter of zone of inhibition: 28 mm
S. epidermidis 563; Quantity n 0.029
  Diameter of zone of inhibition: 18 mm
S. epidermidis 563; Quantity n 0.14
  Diameter of zone of inhibition: 28 mm
S. epidermidis 563; Quantity n 0.29
  Diameter of zone of inhibition: 30 mm
S. epidermidis 1068; Quantity n 0.029
  Diameter of zone of inhibition: 14 mm
S. epidermidis 1068; Quantity n 0.14
  Diameter of zone of inhibition: 22 mm
S. epidermidis 1068; Quantity n 0.29
  Diameter of zone of inhibition: 24 mm
[1]; Quantity n 0.029
  Diameter of zone of inhibition: r
[1]; Quantity n 0.14
  Diameter of zone of inhibition: 8 mm
[1]; Quantity n 0.29
  Diameter of zone of inhibition: 14 mm
[2]; Quantity n 0.029
  Diameter of zone of inhibition: r
[2]; Quantity n 0.14
  Diameter of zone of inhibition: 12 mm
[2]; Quantity n 0.29
  Diameter of zone of inhibition: 14 mm
[3]; Quantity n 0.029
  Diameter of zone of inhibition: 18 mm
[3]; Quantity n 0.14
  Diameter of zone of inhibition: 24 mm
[3]; Quantity n 0.29
  Diameter of zone of inhibition: 28 mm
E. faecalis 945; Quantity n 0.029
  Diameter of zone of inhibition: r
E. faecalis 945; Quantity n 0.14
  Diameter of zone of inhibition: r
E. faecalis 945; Quantity n 0.29
  Diameter of zone of inhibition: r
S. epidermidis 125; Quantity n 0.029
  Diameter of zone of inhibition: 20 mm
S. epidermidis 125; Quantity n 0.14
  Diameter of zone of inhibition: 30 mm
S. epidermidis 125; Quantity n 0.29
  Diameter of zone of inhibition: 32 mm
[4]; Quantity n 0.029
  Diameter of zone of inhibition: 30 mm
[4]; Quantity n 0.14
  Diameter of zone of inhibition: 36 mm
[4]; Quantity n 0.29
  Diameter of zone of inhibition: 38 mm
S. aureus 36881; Quantity n 0.029
  Diameter of zone of inhibition: r
S. aureus 36881; Quantity n 0.14
  Diameter of zone of inhibition: 14 mm
S. aureus 36881; Quantity n 0.29
  Diameter of zone of inhibition: 18 mm
[5]; Quantity n 0.029
  Diameter of zone of inhibition: r
[5]; Quantity n 0.14
  Diameter of zone of inhibition: 14 mm
[5]; Quantity n 0.29
  Diameter of zone of inhibition: 18 mm
S. aureus 34289; Quantity n [mol] 0.029
  Diameter of zone of inhibition: r
S. aureus 34289; Quantity n [mol] 0.14
  Diameter of zone of inhibition: r
S. aureus 34289; Quantity n [mol] 0.29
  Diameter of zone of inhibition: r
S. aureus 520; Quantity n [mol] 0.029
  Diameter of zone of inhibition: r
S. aureus 520; Quantity n [mol] 0.14
  Diameter of zone of inhibition: r
S. aureus 520; Quantity n [mol] 0.29
  Diameter of zone of inhibition: 10 mm
S. aureus 526; Quantity n 0.029
  Diameter of zone of inhibition: r
S. aureus 526; Quantity n 0.14
  Diameter of zone of inhibition: r
S. aureus 526; Quantity n 0.29
  Diameter of zone of inhibition: r
S. aureus 39105; Quantity n 0.029
  Diameter of zone of inhibition: 8 mm
S. aureus 39105; Quantity n 0.14
  Diameter of zone of inhibition: 20 mm
S. aureus 39105; Quantity n 0.29
  Diameter of zone of inhibition: 22 mm
S. aureus 33490; Quantity n [μmol] 0.029
  Diameter of zone of inhibition: 16 mm
S. aureus 33490; Quantity n [μmol] 0.14
  Diameter of zone of inhibition: 24 mm
S. aureus 33490; Quantity n [μmol] 0.29
  Diameter of zone of inhibition: 26 mm
B. subtilis AWD 166; Quantity n 0.029
  Diameter of zone of inhibition: 30 mm
B. subtilis AWD 166; Quantity n 0.14
  Diameter of zone of inhibition: 36 mm
B. subtilis AWD 166; Quantity n 0.29
  Diameter of zone of inhibition: 38 mm
